Experimental data as given in patent publication US20090029366A1 (priority 2007, published 2009).
Read-outs that look alike come from different tables or passages of the source.

Legend:
human HCN1 = biological target: T1, human HCN1 (Homo sapiens, UniProt O60741); test: Dose response of blockade of hyperpolarization (MPSD FLIPR), HCN1; type: cell-based; conditions: HEK-293 clone
T1 construct: expressed in transfected cells; host or cells: HEK-293H
T1 sequence (O60741 1-890): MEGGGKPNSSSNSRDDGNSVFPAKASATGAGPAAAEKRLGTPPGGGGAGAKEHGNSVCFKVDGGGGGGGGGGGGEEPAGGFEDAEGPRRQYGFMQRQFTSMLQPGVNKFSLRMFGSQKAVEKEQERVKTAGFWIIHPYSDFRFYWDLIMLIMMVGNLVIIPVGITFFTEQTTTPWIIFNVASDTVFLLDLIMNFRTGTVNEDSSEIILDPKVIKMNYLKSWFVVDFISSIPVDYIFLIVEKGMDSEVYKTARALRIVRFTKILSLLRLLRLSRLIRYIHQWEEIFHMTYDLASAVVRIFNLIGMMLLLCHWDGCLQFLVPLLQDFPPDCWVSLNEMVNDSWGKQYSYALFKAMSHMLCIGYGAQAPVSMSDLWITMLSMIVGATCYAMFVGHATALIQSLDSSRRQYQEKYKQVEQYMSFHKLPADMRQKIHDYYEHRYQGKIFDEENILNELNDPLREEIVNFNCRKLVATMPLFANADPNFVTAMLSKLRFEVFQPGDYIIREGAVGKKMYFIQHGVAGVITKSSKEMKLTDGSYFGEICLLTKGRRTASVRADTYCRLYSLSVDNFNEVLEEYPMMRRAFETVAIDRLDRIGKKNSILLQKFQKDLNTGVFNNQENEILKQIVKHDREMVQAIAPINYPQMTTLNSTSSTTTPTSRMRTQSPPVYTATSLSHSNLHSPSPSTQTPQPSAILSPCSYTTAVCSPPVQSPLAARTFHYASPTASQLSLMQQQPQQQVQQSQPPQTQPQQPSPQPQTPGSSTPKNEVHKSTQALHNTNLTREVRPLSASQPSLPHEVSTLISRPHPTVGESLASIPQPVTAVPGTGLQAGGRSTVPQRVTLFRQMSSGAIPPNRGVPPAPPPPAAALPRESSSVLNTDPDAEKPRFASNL
Procedure: (§1) HEK-293H cells stably expressing a human HCN1 channel were plated and incubated in HBSS essentially as described in Examples 3 and 5. CHO-K1 cells stably expressing a human HCN4 channel were plated and incubated in HBSS essentially as described in Example 6. Varying concentrations of ZD7288 were added to HBSS for each of the test wells to determine the dose response of cells expressing HCN1 or HCN4 channels. The percent inhibition of hyperpolarization was calculated for a single dose using the following equation:
(§2) The data were fit with a Hill equation as described by the ratio 1/(1+([test agent]/IC50)^k, where IC50 is the concentration of a test agent required to inhibit one-half of the maximum current and k is the Hill coefficient.
FIG. 10A depicts a typical dose response curve for a single HEK-293H HCN1 channel expressing clone in the presence of ZD7288. […] No statistical difference was found between the two means.

human HCN4 channel = biological target: T2, human HCN4 channel (Homo sapiens, UniProt Q9Y3Q4); test: Dose response of blockade of hyperpolarization (MPSD FLIPR), HCN4; type: cell-based
T2 construct: expressed in transfected cells; host or cells: CHO-K1
T2 sequence (Q9Y3Q4 1-1203): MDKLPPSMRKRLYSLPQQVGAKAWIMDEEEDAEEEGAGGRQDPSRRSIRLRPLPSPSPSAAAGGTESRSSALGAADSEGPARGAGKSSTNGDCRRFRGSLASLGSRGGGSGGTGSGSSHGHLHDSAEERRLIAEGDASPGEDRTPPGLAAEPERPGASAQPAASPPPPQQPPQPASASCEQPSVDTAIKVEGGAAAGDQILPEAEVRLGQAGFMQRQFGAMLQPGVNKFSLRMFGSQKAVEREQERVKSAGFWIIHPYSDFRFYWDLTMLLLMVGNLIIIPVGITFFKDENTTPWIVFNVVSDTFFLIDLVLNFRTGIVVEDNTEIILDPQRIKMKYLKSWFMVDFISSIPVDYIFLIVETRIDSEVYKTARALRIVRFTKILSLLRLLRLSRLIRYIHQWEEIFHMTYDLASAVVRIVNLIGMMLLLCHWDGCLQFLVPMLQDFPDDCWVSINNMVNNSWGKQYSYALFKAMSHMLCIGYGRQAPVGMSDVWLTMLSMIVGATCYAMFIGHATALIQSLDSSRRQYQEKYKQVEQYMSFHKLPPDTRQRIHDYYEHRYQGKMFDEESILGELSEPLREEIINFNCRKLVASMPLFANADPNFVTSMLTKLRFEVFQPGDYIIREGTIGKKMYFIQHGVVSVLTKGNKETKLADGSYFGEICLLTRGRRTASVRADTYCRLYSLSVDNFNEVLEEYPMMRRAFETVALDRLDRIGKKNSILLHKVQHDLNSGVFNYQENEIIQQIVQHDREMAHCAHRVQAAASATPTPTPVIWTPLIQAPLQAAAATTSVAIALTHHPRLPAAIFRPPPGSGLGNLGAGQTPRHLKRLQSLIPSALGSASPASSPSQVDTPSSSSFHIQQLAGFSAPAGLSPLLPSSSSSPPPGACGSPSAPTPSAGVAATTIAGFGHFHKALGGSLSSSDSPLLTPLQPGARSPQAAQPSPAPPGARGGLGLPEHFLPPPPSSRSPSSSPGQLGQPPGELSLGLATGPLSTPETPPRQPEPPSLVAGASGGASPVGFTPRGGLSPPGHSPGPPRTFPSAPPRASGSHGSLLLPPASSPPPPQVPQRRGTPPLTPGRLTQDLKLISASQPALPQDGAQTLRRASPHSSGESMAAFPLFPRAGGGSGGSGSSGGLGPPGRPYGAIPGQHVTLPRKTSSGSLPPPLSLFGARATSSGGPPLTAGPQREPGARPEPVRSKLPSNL
Procedure: as §1, §2
Similarly, ZD7288 IC50 values on HCN4 channel were determined in a set of two experiments. […] No statistical difference was found between the two experiments.

For `CCN(c1ccccc1)c1cc(=NC)n(C)c(C)n1.Cl` [ZD7288], the IC50 (human HCN1; group 1, n=8, mean ± 0.2 μM, read-out: IC50 mean, group 1) was 2.1 µM, the IC50 (human HCN1; group 2, n=12, mean ± 0.8 μM, read-out: IC50 mean, group 2) was 2.9 µM and the IC50 (human HCN4 channel; CHO-K1, group 1, n=8, mean ± 2.31 μM, read-out: IC50 mean, group 1) was 9.07 µM. It also gave an IC50 (human HCN4 channel; CHO-K1, group 2, n=8, mean ± 2.61 μM, read-out: IC50 mean, group 2) of 9.06 µM.
